Experimental data reported in patent US9505762B2, “Purine derivatives as CB2 receptor agonists” (Hoffmann-La Roche Inc., priority 2013, dated 2016).

Tests used:
[1] = biological target: human CB1 receptors (Homo sapiens (Human), UniProt P21554); experiment: functional cAMP assay, CB1; assay type: cell-based; conditions: CHO cells expressing human CB1
[2] = biological target: human CB2 receptors (Homo sapiens (Human), UniProt P34972); experiment: functional cAMP assay, CB2; assay type: cell-based; conditions: CHO cells expressing human CB2
Sequence of human CB2 receptors (P34972 whole entry): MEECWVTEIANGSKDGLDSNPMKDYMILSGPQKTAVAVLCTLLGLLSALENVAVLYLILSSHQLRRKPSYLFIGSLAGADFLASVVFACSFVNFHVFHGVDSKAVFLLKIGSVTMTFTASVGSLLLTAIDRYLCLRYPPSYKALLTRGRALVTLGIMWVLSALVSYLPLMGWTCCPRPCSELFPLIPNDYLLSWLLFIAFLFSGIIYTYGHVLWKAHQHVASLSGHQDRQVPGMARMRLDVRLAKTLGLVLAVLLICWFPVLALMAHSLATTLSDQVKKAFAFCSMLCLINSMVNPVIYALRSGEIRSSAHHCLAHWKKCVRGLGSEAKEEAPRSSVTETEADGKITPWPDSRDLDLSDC

Sequence of human CB1 receptors (P21554 whole entry): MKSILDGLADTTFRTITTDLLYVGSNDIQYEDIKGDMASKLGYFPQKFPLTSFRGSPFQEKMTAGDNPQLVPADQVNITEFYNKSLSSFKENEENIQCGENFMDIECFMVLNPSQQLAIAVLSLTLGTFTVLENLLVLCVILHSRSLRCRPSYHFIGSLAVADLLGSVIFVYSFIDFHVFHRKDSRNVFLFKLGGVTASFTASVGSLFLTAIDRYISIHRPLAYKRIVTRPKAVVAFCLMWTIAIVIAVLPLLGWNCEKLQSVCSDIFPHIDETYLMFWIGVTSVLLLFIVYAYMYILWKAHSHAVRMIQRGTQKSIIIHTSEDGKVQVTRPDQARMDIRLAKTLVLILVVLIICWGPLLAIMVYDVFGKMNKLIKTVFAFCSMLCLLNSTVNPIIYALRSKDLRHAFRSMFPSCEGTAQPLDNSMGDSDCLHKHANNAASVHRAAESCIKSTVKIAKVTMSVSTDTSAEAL

| SMILES | EC50 [1] | EC50 [2] |
| --- | --- | --- |
| CC(C)(C)Nc1nc(N2CCC(F)(F)C2)c2ncn(Cc3ccccc3C(F)(F)F)c2n1 [Example 108, N-tert-butyl-6-(3,3-difluoropyrrolidin-1-yl)-9-[[2-(trifluoromethyl)phenyl]methyl]purin-2-amine] | > 10000 nM | 6.7 nM |
| Cc1nonc1Cn1cnc2c(N3CCC(F)(F)C3)nc(OCC(C)(C)C)nc21 [Example 140, 3-[[6-(3,3-difluoropyrrolidin-1-yl)-2-(2,2-dimethylpropoxy)purin-9-yl]methyl]-4-methyl-1,2,5-oxadiazole] | > 10000 nM | 9.2 nM |
| CC1(O)CN(c2nc(C(C)(C)C)nc3c2ncn3Cc2ncccc2Cl)C1 [Example 169, 1-[2-tert-butyl-9-[(3-chloropyridin-2-yl)methyl]purin-6-yl]-3-methylazetidin-3-ol] | > 10000 nM | 51.4 nM |
| CCCn1nnnc1Cn1cnc2c(N3CC[C@H](O)C3)nc(C(C)(C)C)nc21 [Example 158, (3S)-1-[2-tert-butyl-9-[(1-propyltetrazol-5-yl)methyl]purin-6-yl]pyrrolidin-3-ol] | > 10000 nM | 61.6 nM |
| Cc1noc(Cn2cnc3c(N4CCC(F)(F)C4)nc(OCC(C)(C)C)nc32)n1 [Example 128, 5-[[6-(3,3-difluoropyrrolidin-1-yl)-2-(2,2-dimethylpropoxy)purin-9-yl]methyl]-3-methyl-1,2,4-oxadiazole] | > 10000 nM | 109 nM |
| Cn1nnnc1Cn1cnc2c(N3CCC(F)(F)C3)nc(OCC(C)(C)C)nc21 [Example 129, 6-(3,3-difluoropyrrolidin-1-yl)-2-(2,2-dimethylpropoxy)-9-[(1-methyltetrazol-5-yl)methyl]purine] | > 10000 nM | 95.6 nM |
| CC1(O)CCN(c2nc(C(C)(C)C)nc3c2ncn3Cc2cccnc2Cl)C1 (stereo not drawn) [Example 68, 1-[2-tert-butyl-9-[(2-chloropyridin-3-yl)methyl]purin-6-yl]-3-methylpyrrolidin-3-ol] | > 10000 nM | 24.8 nM |
| CC(C)(C)c1nc(N2CCC(F)(F)C2)c2ncn(C3CS(=O)(=O)C3)c2n1 [Example 27, 3-[2-tert-butyl-6-(3,3-difluoropyrrolidin-1-yl)purin-9-yl]thietane 1,1-dioxide] | > 10000 nM | 14.1 nM |
| Cc1noc(Cn2cnc3c(N4CC(F)(F)C(F)(F)C4)nc(C(C)(C)C)nc32)n1 [Example 80, 5-[[2-tert-butyl-6-(3,3,4,4-tetrafluoropyrrolidin-1-yl)purin-9-yl]methyl]-3-methyl-1,2,4-oxadiazole] | > 10000 nM | 179 nM |
| CC1(O)CCN(c2nc(NC(C)(C)C)nc3c2ncn3Cc2ccccc2Cl)C1 (stereo not drawn) [Example 120, 1-[2-(tert-butylamino)-9-[(2-chlorophenyl)methyl]purin-6-yl]-3-methylpyrrolidin-3-ol] | > 10000 nM | 108 nM |
| Cc1nonc1Cn1cnc2c(N3CC[C@H](O)C3)nc(C(C)(C)C)nc21 [Example 96, (3S)-1-[2-tert-butyl-9-[(4-methyl-1,2,5-oxadiazol-3-yl)methyl]purin-6-yl]pyrrolidin-3-ol] | > 10000 nM | 14.8 nM |
| CC(C)(C)c1nc(N2CC[C@H](O)C2)c2ncn(Cc3ccccc3S(C)(=O)=O)c2n1 [Example 90, (3S)-1-[2-tert-butyl-9-[(2-methylsulfonylphenyl)methyl]purin-6-yl]pyrrolidin-3-ol] | > 10000 nM | 7.9 nM |
| Cc1nonc1Cn1cnc2c(N3CCC[C@@H]3CO)nc(C(C)(C)C)nc21 [Example 145, [(2R)-1-[2-tert-butyl-9-[(4-methyl-1,2,5-oxadiazol-3-yl)methyl]purin-6-yl]pyrrolidin-2-yl]methanol] | > 10000 nM | 6.1 nM |
| CC(C)(C)c1nc(N2CCC3(COC3)C2)c2ncn(Cc3ccccc3Cl)c2n1 [Example 56, 7-[2-tert-butyl-9-[(2-chlorophenyl)methyl]purin-6-yl]-2-oxa-7-azaspiro[3.4]octane] | > 10000 nM | 55.8 nM |
| Cn1nnnc1Cn1cnc2c(N3CCC(F)(F)C3)nc(C(C)(C)C)nc21 [Example 14, 2-tert-butyl-6-(3,3-difluoropyrrolidin-1-yl)-9-[(1-methyltetrazol-5-yl)methyl]purine] | > 10000 nM | 23 nM |
| CC(C)(C)c1nc(N2CCC3(COC3)C2)c2ncn(Cc3cccc(Cl)c3)c2n1 [Example 57, 7-[2-tert-butyl-9-[(3-chlorophenyl)methyl]purin-6-yl]-2-oxa-7-azaspiro[3.4]octane] | > 10000 nM | 466 nM |
| CC1(O)CCN(c2nc(C(C)(C)C)nc3c2ncn3CCC(F)(F)F)C1 (stereo not drawn) [Example 102, 1-[2-tert-butyl-9-(3,3,3-trifluoropropyl)purin-6-yl]-3-methylpyrrolidin-3-ol] | > 10000 nM | 135 nM |
| CC(C)(C)c1nc(N2CCC(F)(F)C2)c2ncn(Cc3ccc(F)cc3Cl)c2n1 [Example 4, 2-tert-butyl-9-[(2-chloro-4-fluorophenyl)methyl]-6-(3,3-difluoropyrrolidin-1-yl)purine] | > 10000 nM | 3.1 nM |
| CC(C)(C)c1nc(N2CCC3(COC3)C2)c2ncn(Cc3ccc(Cl)cc3)c2n1 [Example 58, 7-[2-tert-butyl-9-[(4-chlorophenyl)methyl]purin-6-yl]-2-oxa-7-azaspiro[3.4]octane] | > 10000 nM | 506 nM |
| CC1(O)CCN(c2nc(C(C)(C)C)nc3c2ncn3Cc2n[nH]cc2C(F)(F)F)C1 (stereo not drawn) [Example 85, 1-[2-tert-butyl-9-[[4-(trifluoromethyl)-1H-pyrazol-3-yl]methyl]purin-6-yl]-3-methylpyrrolidin-3-ol] | > 10000 nM | 22.1 nM |
| Cn1nnnc1Cn1cnc2c(N3CCC(O)C3)nc(C(C)(C)C)nc21 (stereo not drawn) [Example 30, 1-[2-tert-butyl-9-[(1-methyltetrazol-5-yl)methyl]purin-6-yl]pyrrolidin-3-ol] | > 10000 nM | 301 nM |
| Cc1nonc1Cn1cnc2c(N3CCC4(COC4)C3)nc(C(C)(C)C)nc21 [Example 62, 7-[2-tert-butyl-9-[(4-methyl-1,2,5-oxadiazol-3-yl)methyl]purin-6-yl]-2-oxa-7-azaspiro[3.4]octane] | > 10000 nM | 146 nM |
| Cc1nonc1Cn1cnc2c(N3CC[C@H](O)C3)nc(NC(C)(C)C)nc21 [Example 119, (3S)-1-[2-(tert-butylamino)-9-[(4-methyl-1,2,5-oxadiazol-3-yl)methyl]purin-6-yl]pyrrolidin-3-ol] | > 10000 nM | 149 nM |
| CC(C)(C)c1nc(N2CCC3(COC3)C2)c2ncn(Cc3ncccc3Cl)c2n1 [Example 104, 7-[2-tert-butyl-9-[(3-chloropyridin-2-yl)methyl]purin-6-yl]-2-oxa-7-azaspiro[3.4]octane] | > 10000 nM | 160 nM |
| CC(C)(C)c1nc(N2CCC(F)(F)C2)c2ncn(Cc3ncccc3Cl)c2n1 [Example 21, 2-tert-butyl-9-[(3-chloropyridin-2-yl)methyl]-6-(3,3-difluoropyrrolidin-1-yl)purine] | > 10000 nM | 2.2 nM |
| Cc1nnc(Cn2cnc3c(N4CCC(F)(F)C4)nc(OCC(C)(C)C)nc32)o1 [Example 127, 2-[[6-(3,3-difluoropyrrolidin-1-yl)-2-(2,2-dimethylpropoxy)purin-9-yl]methyl]-5-methyl-1,3,4-oxadiazole] | > 10000 nM | 332 nM |
| Cc1noc(Cn2cnc3c(N4CCC(O)C4)nc(C(C)(C)C)nc32)n1 (stereo not drawn) [Example 29, 1-[2-tert-butyl-9-[(3-methyl-1,2,4-oxadiazol-5-yl)methyl]purin-6-yl]pyrrolidin-3-ol] | > 10000 nM | 427 nM |
| CC(C)(C)c1nc(N2CCC(O)C2)c2ncn(Cc3ncccc3Cl)c2n1 (stereo not drawn) [Example 32, 1-[2-tert-butyl-9-[(3-chloropyridin-2-yl)methyl]purin-6-yl]pyrrolidin-3-ol] | > 10000 nM | 3.4 nM |
| CC(C)(C)Nc1nc(N2CCC(F)(F)C2)c2ncn(Cc3ccccc3S(C)(=O)=O)c2n1 [Example 114, N-tert-butyl-6-(3,3-difluoropyrrolidin-1-yl)-9-[(2-methylsulfonylphenyl)methyl]purin-2-amine] | > 10000 nM | 45.5 nM |
| CC(C)(C)Nc1nc(N2CC[C@H](O)C2)c2ncn(Cc3ncccc3Cl)c2n1 [Example 118, (3S)-1-[2-(tert-butylamino)-9-[(3-chloropyridin-2-yl)methyl]purin-6-yl]pyrrolidin-3-ol] | > 10000 nM | 152 nM |
